# System: brush-border membrane vesicles (BBMVs)
# Assay: Membrane fluidity of BBMVs by fluorescence polarization (fluorescence anisotropy)
# Settings: rat BBMVs, 37 °C, SLG-30 0.1-1.0% v/v, vs control, n = 4
# Method: To prepare BBMVs, we followed the methods as reported previously with a slight modification. Briefly, an in situ small intestinal loop was prepared in each rat, as mentioned above, and then, PBS (pH 7.4) was administered into the loop. The fat was trimmed off from the small intestine and mesentery. Then, the whole small intestine was soaked in ice-cold PBS (pH 7.4). The small intestine was divided into 10 cm segments. Mucosa was scraped out with a slide glass from each of these segments and used for subsequent studies. BBMVs were prepared by the divalent cation precipitation method using MgCl2 in the presence of ethylenebis (oxyethylenenitrilo) tetraacetic acid (EGTA). Briefly, the collected mucosa was homogenized in a buffer containing mannitol (300 mM), EGTA (5 mM), and Tris (pH 7.4) (12 mM) by using a tissue homogenizer. An aqueous solution of 10 mM magnesium chloride was added to the homogenate. The homogenate was centrifuged at 3000× g for 15 min. The supernatant was then centrifuged at 32,000× g for 30 min. The pellet was resuspended in a buffer containing mannitol (300 mM), EGTA (5 mM), and Tris (pH 7.4) (12 mM) by using a 26-G needle. The protein concentration was determined by the BCA method using bovine serum albumin as a standard, and the final concentration was adjusted to 1 mg/ml in each Eppendorf tube. The samples were frozen by liquid nitrogen and kept at −80 °C for further studies.
# The BBMVs (100 μg protein) were incubated with 1 μM DPH, with 0.5 μM tma-DPH or with 5 μM DNS-Cl in HEPES-Tris buffer (25 mM HEPES, 5.4 mM KCl, 1.8 mM CaCl2, 0.8 mM MgSO4, 140 mM NaCl, 5 mM glucose, pH 7.4 adjusted by 1 M Tris) in the dark at 37 °C for 30 min [25, 28]. Then, various concentrations (0.1% v/v, 0.25% v/v, 0.5% v/v, and 1.0% v/v) of SLG-30 were added. Then, the samples were incubated in the dark for 1 min at 37 °C. For the control group, the same procedure was carried out by adding the HEPES-Tris buffer only. The fluorescence intensities and the steady-state polarization of fluorescence expressed as the fluorescence anisotropy, r, of the labeled membrane vesicles were measured at 37 °C. The excitation and emission wavelengths were λex = 360 nm, and λem = 430 nm for DPH and tma-DPH and λex = 380 nm and λem = 480 nm for DNS-Cl. The measurements were carried out by using a Hitachi Spectrofluorometer (F-2000 Spectrofluorometer, Hitachi Seisakusho Corp, Yokohama, Japan) equipped with a polarizer set.
# The fluorescence anisotropy (r) was calculated using the following equation: r=IV−IH/IV+2IH where IV and IH respectively represent the […] fluorescence intensities to the polarized excitation plane.
structure (smiles),measurement,setting,value
"CCCCCCCCCCCC(=O)NC(CCC(=O)NCCCCC(NC(=O)CCC(NC(=O)CCCCCCCCCCC)C(=O)O)C(=O)O)C(=O)O (stereo not drawn) [SLG-30, sodium dilauramidoglutamide lysine]",fluorescence anisotropy of tma-DPH (outer lipid bilayers),0.5 μM tma-DPH,significantly increased
same,fluorescence anisotropy of DPH (inner lipid bilayers),1 μM DPH,slightly decreased
same,fluorescence anisotropy of DNS-Cl (protein portion),"5 μM DNS-Cl, p < 0.01",significantly reduced

# — article PMC6523531, “Mechanistic Studies on the Absorption-Enhancing Effects of Gemini Surfactant on the Intestinal Absorption of Poorly Absorbed Hydrophilic Drugs in Rats” (Pharmaceutics, 2019)
